Assay results taken from patent publication US20250263404A1, “AMINOPYRIDINES AS ACTIVATORS OF PI3 KINASE” (UCL Business Ltd, priority 2021, published 2025).

Legend:
PI3Kα = PI3Kα (Homo sapiens, UniProt P42336); assay: ADP-Glo in vitro lipid kinase assay, PI3Kα; type: biochemical; design: Full-length p110α was expressed in a complex with full-length p85α (for biochemistry and HDX-MS); 6xHis followed by TEV protease site (N); made in house; host or cells: Spodoptera frugiperda Sf9 (baculovirus co-infection; plasmids OP831 and OP809); conditions: for Max. activity relative to pY ctrl: relative to pY control
Description: The effect of 1938 on the in vitro lipid kinase activity of p85α in complex with p110α, p110β or p110δ (further referred to as PI3Kα, PI3Kβ and PI3Kδ) was tested. As a positive control, a bis-phosphorylated phosphopeptide (a PDGF-receptor-derived peptide phosphorylated on Tyr-740 and Tyr-751, hereafter referred to as pY peptide) was used to mimic engagement of the p85α SH2 domains with tyrosine-phosphorylated peptides in membrane-bound receptors and adaptor proteins, known to activate the PI3Kα complex.
Kinase reactions were performed with ADP-Glo kinase assay kit (Promega Corporation). The enzyme, substrate and compounds were diluted in reaction buffer (20 mM HEPES, 50 mM NaCl, 50 mM KCl, 3 mM MgCl2, 1 mM EGTA, 1 mM TCEP, pH 7.4). Final concentrations of PI3Kα and PI3Kδ used were 25 nM and 50 nM for PI3Kβ. Liposomes (5% brain PI(4,5)P2, 20% brain phosphatidylserine, 45% brain phosphatidylethanolamine, 15% brain phosphatidylcholine, 10% cholesterol, 5% sphingomyelin (Avanti Polar Lipids)) were used at a final concentration of 1 mg/ml.
For compound profiling, the reaction mixture contained 2 μl PI3K enzyme, 2 μl compound and/or pY and 2 μl of liposome substrate mixed with ATP. ATP was used at a final concentration of 500 μM for PI3Kα and PI3Kβ and at 200 μM for PI3Kδ, unless otherwise stated. The final DMSO concentration in the assay was 1%. The experiments were performed at room temperature for 3 h using 384 white-polystyrene plates (Corning #3824) before addition of 6 μl of ADP-Glo R1 to terminate the reaction. The plate was incubated for 45 min, followed by addition of 12 μl of ADP-Glo R2 and incubated further for 60 min in the dark. Luminescence was read using a Sense (Hidex) plate reader. […] All analyses were performed using GraphPad Prism 7.
For characterisation of the effects of 1938 on in vitro PI3K enzymology, all reactions were performed at room temperature with 384 white-polystyrene plates (Corning #3574). The final DMSO concentration in the assay was between 0.5%-1.8%. The reaction mixture contained 2 μl PI3K enzyme, 2 μl compound and/or pY and 2 μl of liposome substrate mixed with ATP. ATP was used at a final concentration of 200 μM, unless otherwise stated. The enzyme and compounds were pre-incubated for 10 min prior to addition of substrate. The reaction was allowed to proceed for 45 min at room temperature, before addition of 6 μl of ADP-Glo R1 to terminate the reaction. The plate was incubated for 60 min, followed by addition of 12 μl of ADP-Glo R2 and incubated further for 60 min in the dark. For enzyme kinetic calculations, data was expressed as velocity (pmol of ADP generated/sec). ADP-ATP standard curves were performed according to the manufacturer's instructions, and all analyses were performed using GraphPad Prism 8.

[1] = Solubility (comparison in words); type: physicochemical

Chain of PI3Kα (P42336 whole entry, the tested form may be a part): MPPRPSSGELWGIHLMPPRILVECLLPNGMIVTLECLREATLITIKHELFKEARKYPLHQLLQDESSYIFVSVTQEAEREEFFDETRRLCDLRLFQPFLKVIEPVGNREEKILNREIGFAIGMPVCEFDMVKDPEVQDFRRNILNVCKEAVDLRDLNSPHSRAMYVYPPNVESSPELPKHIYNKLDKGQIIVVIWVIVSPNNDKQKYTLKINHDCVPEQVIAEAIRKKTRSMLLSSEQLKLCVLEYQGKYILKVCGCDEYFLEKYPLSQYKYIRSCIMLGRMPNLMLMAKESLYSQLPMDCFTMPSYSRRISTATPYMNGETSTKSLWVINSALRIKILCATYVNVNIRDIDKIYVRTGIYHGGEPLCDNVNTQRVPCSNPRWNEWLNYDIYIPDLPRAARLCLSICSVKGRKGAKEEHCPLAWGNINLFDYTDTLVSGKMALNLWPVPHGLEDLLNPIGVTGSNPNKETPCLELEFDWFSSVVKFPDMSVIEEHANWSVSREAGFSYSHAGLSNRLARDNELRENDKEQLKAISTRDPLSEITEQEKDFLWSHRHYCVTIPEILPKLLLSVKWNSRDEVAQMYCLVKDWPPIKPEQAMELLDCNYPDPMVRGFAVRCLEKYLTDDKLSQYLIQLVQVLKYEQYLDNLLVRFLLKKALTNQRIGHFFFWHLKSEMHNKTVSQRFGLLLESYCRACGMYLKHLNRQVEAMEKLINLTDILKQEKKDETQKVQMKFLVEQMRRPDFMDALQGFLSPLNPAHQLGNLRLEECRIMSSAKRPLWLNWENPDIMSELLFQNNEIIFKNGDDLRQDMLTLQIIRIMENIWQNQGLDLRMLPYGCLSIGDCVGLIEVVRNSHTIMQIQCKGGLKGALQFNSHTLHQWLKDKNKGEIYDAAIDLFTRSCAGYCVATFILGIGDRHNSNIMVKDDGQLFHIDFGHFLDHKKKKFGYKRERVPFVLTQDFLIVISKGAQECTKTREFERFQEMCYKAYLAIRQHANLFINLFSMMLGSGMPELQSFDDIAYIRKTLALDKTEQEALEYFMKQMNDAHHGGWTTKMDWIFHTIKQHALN
Chain of PI3Kα (P27986 whole entry partner, the tested form may be a part): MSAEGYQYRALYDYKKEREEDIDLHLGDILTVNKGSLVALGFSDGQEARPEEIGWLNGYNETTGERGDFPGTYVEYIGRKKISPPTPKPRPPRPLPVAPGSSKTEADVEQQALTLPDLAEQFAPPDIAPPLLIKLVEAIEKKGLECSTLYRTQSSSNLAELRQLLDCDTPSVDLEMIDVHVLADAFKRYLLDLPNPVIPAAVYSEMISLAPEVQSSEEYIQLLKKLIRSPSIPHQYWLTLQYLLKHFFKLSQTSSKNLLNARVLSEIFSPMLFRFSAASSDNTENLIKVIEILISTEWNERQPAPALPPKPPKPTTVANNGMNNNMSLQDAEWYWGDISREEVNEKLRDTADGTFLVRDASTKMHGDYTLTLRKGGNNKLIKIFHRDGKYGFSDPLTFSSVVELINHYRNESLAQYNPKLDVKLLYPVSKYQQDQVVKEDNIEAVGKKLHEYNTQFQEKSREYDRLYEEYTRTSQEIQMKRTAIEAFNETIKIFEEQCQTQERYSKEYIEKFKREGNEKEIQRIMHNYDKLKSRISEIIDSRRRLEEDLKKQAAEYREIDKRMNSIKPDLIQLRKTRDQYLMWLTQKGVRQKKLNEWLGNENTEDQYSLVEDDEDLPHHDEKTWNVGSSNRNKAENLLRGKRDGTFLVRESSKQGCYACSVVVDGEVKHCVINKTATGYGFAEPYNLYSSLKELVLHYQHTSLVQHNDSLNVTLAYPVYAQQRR

Row | Max. activity relative to 1938 (PI3Kα) | Max. activity relative to pY ctrl (PI3Kα) | reduction in activity (PI3Kα; structure-activity comparison with 1938) | solubility compared with 1938 (in words) [1] | SMILES
1 | 9% | 36 ± 8% | more than 90% | less soluble than 1938 | CC(=O)N1CCc2cccc(Nc3ccnc(Nc4ccccc4)c3)c21 [Example 2016]
2 | 4% | 14 ± 13% |  |  | CCN1CCN(c2ccc(Nc3cc(Nc4ccncn4)ccn3)cc2)CC1 [Example 2106]
